Laboratory results published in ChEMBL document CHEMBL5032508, “Synthesis of Fluorescent Probes Targeting Tumor-Suppressor Protein FHIT and Identification of Apoptosis-Inducing FHIT Inhibitors” (J Med Chem, 2021).

How the values were obtained:
[1] = Growth inhibition of human NCI-H460-luc cells incubated for 72 hrs by CCK-8 assay; type: functional
[2] = target: T1, Bis(5'-adenosyl)-triphosphatase (Homo sapiens, UniProt P49789); experiment: Inhibition of recombinant human FHIT assessed as reduction in AP3Aase activity measured after 45 mins by HPLC analysis
T1 sequence (P49789 whole entry): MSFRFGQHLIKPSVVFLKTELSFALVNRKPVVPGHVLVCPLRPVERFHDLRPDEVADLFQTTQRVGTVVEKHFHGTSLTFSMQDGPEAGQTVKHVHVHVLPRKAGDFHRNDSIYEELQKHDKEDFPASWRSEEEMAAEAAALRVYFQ

[3] = Growth inhibition of human HCC827-luc cells incubated for 72 hrs by CCK-8 assay; type: functional
[4] = target: T1, Bis(5'-adenosyl)-triphosphatase; experiment: Inhibition of recombinant human FHIT incubated for 1hr in presence of tokyogreen-labeled CMP probe by fluorescence based analysis
[5] = Dissociation constant, pKa of compound; type: physicochemical
[6] = target: T1, Bis(5'-adenosyl)-triphosphatase; experiment: Inhibition of human FHIT expressed in Escherichia coli BL21(DE3)-RIL cells using AP3A as substrate pretreated for 10 mins followed by substrate addition and measured after 1 hr by HPLC analysis

Structure (SMILES) | GI50 [1] [µM] | GI50 [3] [µM] | IC50 [4] [µM] | other results
O=C(COc1ccc2c3c(c(=O)oc2c1Br)CCCC3)NO | 5.9 | 0.87 | 0.12 | IC50 [2]: 0.06 µM
CCOC(=O)c1c(C)sc(N)c1C(=O)OCC |  |  | 1.01 | 
Cc1c(OCC(=O)NO)ccc2c3c(c(=O)oc12)CCCC3 | 15 | 2.6 | 1.9 | IC50 [2]: 0.14 µM
NNC(=O)COc1ccc2c3c(c(=O)oc2c1Br)CCCC3 | > 100 | > 100 | 4 | 
O=C(COc1cc2oc(=O)c3c(c2cc1Br)CCCC3)NO |  |  | 18 | 
O=C(COc1cc2oc(=O)c3c(c2cc1Cl)CCCC3)NO |  |  | 50 | 
NNC(=O)c1nn(-c2ccccc2)c(=O)cc1O |  |  | 3.98 | 
Cc1c(OCC(=O)O)ccc2c3c(c(=O)oc12)CCCC3 | > 100 | > 100 | 11 | 
O=c1cc(C(F)(F)F)c2cc(F)c(O)cc2o1 |  |  |  | pKa [5]: 5.6
CC1(C)CC(=O)C2=C(C1)NC1=C(C(=O)c3ccccc31)C2c1ccc(Br)cc1 (configuration not stated) | > 10 | > 10 | 8.8 | IC50 [2]: 23 µM; IC50 [6]: 0.049 µM
Cc1c(OCc2nn[nH]n2)ccc2c3c(c(=O)oc12)CCCC3 | > 100 | > 100 | 5 | 
O=C(Cn1cc([N+](=O)[O-])ccc1=O)NC(=O)NCc1ccco1 |  |  | 3.43 | 
Cc1ccc(C(=O)Nc2ccc(S(=O)(=O)O)c3cc(S(=O)(=O)O)cc(S(=O)(=O)O)c23)cc1NC(=O)c1cccc(NC(=O)Nc2cccc(C(=O)Nc3cc(C(=O)Nc4ccc(S(=O)(=O)O)c5cc(S(=O)(=O)O)cc(S(=O)(=O)O)c45)ccc3C)c2)c1 [SURAMIN] |  |  | 50 | 
O=C(O)c1ccc2[nH]c(-c3ccnc(-c4cccnc4)c3)nc2c1 |  |  | 1.58 | 
Cc1cc(=O)oc2c(C)c(OCC(=O)NO)ccc12 | 66 | 9.5 | 41 | 
COCC(=O)N1CC[C@@H]2[C@H]1C(=O)NC[C@H](CCC(=O)OC)N2C |  |  | 4.24 | 
Cc1cc(=O)oc2cc(O)c(F)cc12 |  |  |  | pKa [5]: 6.3
O=C(O)c1ccc(/C=N/NC(=O)c2nc(-c3ccccc3)n(-c3ccccc3)n2)cc1 |  |  | 3.73 | 
COc1c(OCC(=O)NO)ccc2c3c(c(=O)oc12)CCCC3 | 29 | 5.3 | 2.8 | 
CN1C(=O)N/C(=C/c2cccn2-c2ccc(C(=O)O)cc2)C1=O |  |  | 0.77 | 
CCc1c(OCC(=O)NO)ccc2c3c(c(=O)oc12)CCCC3 |  |  | 5.3 | 
Cc1c(OCc2nn[nH]n2)ccc2c3c(c(=O)oc12)CCC(C)C3 (configuration not stated) |  |  | 4.66 | 
CC(=O)c1c(OCC(=O)NO)ccc2c3c(c(=O)oc12)CCCC3 |  |  | 8.1 | 
O=C(COc1ccc2c3c(c(=O)oc2c1)CCCC3)NO | 13 | 0.99 | 5.5 | 
Cc1ccccc1-c1c2ccc(=O)cc-2oc2cc(O)ccc12 |  |  |  | pKa [5]: 6.2
